Test results taken from patent US12311019B2, “Vaccine composition and uses thereof” (Imugene Limited, priority 2018, dated 2025).
Entries after “also recorded” stand apart in the source; their conditions may differ.

Key:
[1] = tested on: PD1 protein from other species—mouse, rat, Rhesus monkey, Cynomolgus monkey and canine; test: Cross-reactivity ELISAs, summary over species; format: binding; settings: for cross-reactivity of affinity-purified anti-PD1 antibodies from animals immunised with the peptide with PD1 protein from other species: mouse, rat, Rhesus monkey, Cynomolgus monkey and canine
Protocol: To assess whether or not the anti-human PD1 antibodies raised in the immunised rabbits would cross-react with PD1 of other species, the anti-PD1 antisera from the Examples 7 and 8, above, were screened in an ELISA assay for binding to mouse, rhesus monkey, canine and rat PD1 proteins.
A further ELISA assay was performed to make a direct comparison of the cross-reactivity of anti-human PD1 antibodies raised in the immunised rabbits (Rabbits 1 and 2) to PD1 proteins of different species.

[2] = molecular target: PD1 (SEQ ID NO:1) conjugated to a His tag (Homo sapiens, UniProt Q15116); test: ELISA of anti-PD1 antibody titre in immunised rabbits on PD1 coated plates; format: binding; settings: for anti-PD1 antibody response / titre raised in immunised rabbits (in words): rabbits immunised with KLH-conjugated peptide in Freund's adjuvant
PD1 (SEQ ID NO:1) conjugated to a His tag, sequence (Q15116 25-170): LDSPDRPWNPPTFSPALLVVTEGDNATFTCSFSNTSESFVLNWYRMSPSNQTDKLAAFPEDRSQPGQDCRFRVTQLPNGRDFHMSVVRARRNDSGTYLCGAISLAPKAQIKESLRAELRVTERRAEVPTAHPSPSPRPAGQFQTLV
Protocol: Approximately 250-500 μg of each KLH-conjugated peptide fragment was diluted with saline and subsequently emulsified in complete or incomplete Freund's adjuvant at a mass ratio of 1:1. The emulsified solution was administered to rabbits by subcutaneous injection around the shoulders and intramuscular injection into the legs in accordance with the following immunization protocol: • i. Day 00—Serum collected 2 ml (for 0.5-1.0 ml pre-immune serum; • ii. Day 01—1st-immunization, complete Freund's adjuvant, 500 μg peptide fragment; • iii. Day 15—2nd-immunization, complete Freund's adjuvant, 500 μg peptide fragment; • iv. Day 29—3rd-immunization, incomplete Freund's adjuvant, 250 μg peptide fragment; • v. Day 35—Serum collected, 2-3 ml for assessment of anti-PD1 antibody titre by ELISA; • vi. Day 36—4th-immunization, incomplete Freund's adjuvant, 250 μg peptide fragment (optional); • vii. Day 43—5th-immunization, incomplete Freund's adjuvant. 250 μg peptide fragment (optional); • viii. Day 50—6th-immunization, incomplete Freund's adjuvant 250 μg peptide fragment (optional); • ix. Day 57—7th-immunization, incomplete Freund's adjuvant 250 μg peptide fragment (optional); • x. Day 63—Blood sample is collected from the immunised rabbits. B. Assessment of Anti-PDJ Antibody Titre in Immunised Rabbits by ELISA
An enzyme-linked immunosorbent assays (ELISA) was used to measure the anti-PD1 antibody titre in the blood samples collected from the immunized rabbits. Briefly, microtiter plates were coated with PD1 (SEQ ID NO:1) conjugated to a His tag. After blocking the wells of the microtiter plates with BSA to minimise non-specific binding, diluted sera from the immunized rabbits were added to the plates and incubated on a shaker for around 1 hr at 20° C. (or alternatively overnight at 4° C.). The plates were then washed four times with PBS/0.1% v/v Tween 20 and excess wash buffer was removed from each well.
Approximately 100 μL of a horseradish peroxidase-labeled anti-rabbit antibody was then added to each well and incubated for around 1 hr at 20° C. The plates were then washed four times with PBS/0.1% v/v Tween 20 and excess wash buffer was removed from each well. The plates were then washed twice with PBS only, to remove traces of Tween remaining from the washing buffer.
To detect the presence of horseradish peroxidase-labeled, anti-rabbit antibody, 100 μL of 1-Step™ ABTS (Pierce Cat. No. 37615) was added to each well and incubated for up to 45 min at 20° C. The absorbance of any colour change in each well was read using a microtitre Titertek Multiskan MC plate reader in the dual wavelength mode at 405 nm against a reference wavelength of 492 nm and compared to appropriate negative controls, such as the colour change observed in a well to which no PD1 was added, to which no immunised rabbit sera was added and/or to which no horseradish peroxidase-labeled, anti-rabbit antibody was added.
Approximately 250-500 μg of each KLH-conjugated fusion peptides were diluted with saline and subsequently emulsified in complete or incomplete Freund's adjuvant at a mass ratio of 1:1. The emulsified solutions were administered to rabbits by subcutaneous injection around the shoulders and intramuscular injection into the legs in accordance with the immunization protocol of Example 2, above.
An enzyme-linked immunosorbent assays (ELISA) was used to measure the anti-PD1 antibody titre in the blood samples collected from the immunized rabbits, in accordance with the methodology set out in Example 2 above. The absorbance readings from the ELISA assay are shown in Table 8, below (SEQ TD NO:9 is underlined): […]

Sequence | species of greatest cross-reactivity of the anti-PD1 antibodies raised with the peptide [1] | cross-reactivity of affinity-purified anti-PD1 antibodies from animals immunised with the peptide with PD1 protein from other species [1] | anti-PD1 antibody response / titre raised in immunised rabbits (in words) [2] | anti-PD1 antibody titre compared to the other peptide sequences ([2]; immunised rabbits)
FPEDRSQPGQDC (listed as Homo sapiens) [SEQ ID NO:29] | greatest cross-reactivity to PD1 protein from Rhesus and Cynomolgus monkeys | at least some cross-reactivity | raising an anti-PD1 antibody response; also recorded: sufficient anti-PD1 antibody titres | 
FSPALLVVTEGD (listed as Homo sapiens) [SEQ ID NO:14] | greatest cross-reactivity to PD1 protein from Rhesus and Cynomolgus monkeys | at least some cross-reactivity | raising an anti-PD1 antibody response; also recorded: sufficient anti-PD1 antibody titres | 
GAISLAPKAQIK (listed as Homo sapiens) [SEQ ID NO:43] | greatest cross-reactivity to PD1 protein from Rhesus and Cynomolgus monkeys | at least some cross-reactivity | raising an anti-PD1 antibody response; also recorded: sufficient anti-PD1 antibody titres | 
GAISLAPKAQIKGWFLDSPDRPWN (listed as Homo sapiens) [SEQ ID NO:57] | greatest cross-reactivity to PD1 protein from Rhesus and Cynomolgus monkeys | at least some cross-reactivity | Anti-PD1 antibodies were also raised | 
GWFLDSPDRPWN (listed as Homo sapiens) [SEQ ID NO:9] | greatest cross-reactivity to PD1 protein from Rhesus and Cynomolgus monkeys | at least some cross-reactivity | raising an anti-PD1 antibody response; also recorded: sufficient anti-PD1 antibody titres | highest anti-PD1 antibody titre; also recorded: higher anti-PD1 antibody titre
GWFLDSPDRPWNGAISLAPKAQIK (listed as Homo sapiens) [SEQ ID NO:56] | greatest cross-reactivity to PD1 protein from Rhesus and Cynomolgus monkeys | at least some cross-reactivity | Anti-PD1 antibodies were also raised | 
LAAFPEDRSQPG (listed as Homo sapiens) [SEQ ID NO:28] | greatest cross-reactivity to PD1 protein from Rhesus and Cynomolgus monkeys | at least some cross-reactivity | raising an anti-PD1 antibody response; also recorded: sufficient anti-PD1 antibody titres | 
LDSPDRPWNPPT (listed as Homo sapiens) [SEQ ID NO:10] | greatest cross-reactivity to PD1 protein from Rhesus and Cynomolgus monkeys | at least some cross-reactivity | raising an anti-PD1 antibody response; also recorded: sufficient anti-PD1 antibody titres | 
LRVTERRAEVPT (listed as Homo sapiens) [SEQ ID NO:49] | greatest cross-reactivity to PD1 protein from Rhesus and Cynomolgus monkeys | at least some cross-reactivity | raising an anti-PD1 antibody response; also recorded: sufficient anti-PD1 antibody titres | 
NWYRMSPSNQTD (listed as Homo sapiens) [SEQ ID NO:59] | greatest cross-reactivity to PD1 protein from Rhesus and Cynomolgus monkeys | at least some cross-reactivity | raising an anti-PD1 antibody response; also recorded: sufficient anti-PD1 antibody titres | 
YLSGAISLAPKA (listed as Homo sapiens) [SEQ ID NO:61] | greatest cross-reactivity to PD1 protein from Rhesus and Cynomolgus monkeys | at least some cross-reactivity | raising an anti-PD1 antibody response; also recorded: sufficient anti-PD1 antibody titres | 
